Results published in the NIST ThermoML archive (doi:10.1016/j.jct.2016.07.012).
± gives the expanded uncertainty stated by the source.

Experiment: molar heat capacity at constant pressure
Conditions: 101.33 kPa, Small (less than 1 g) adiabatic calorimetry

CCCCn1cc[n+](C)c1.F[P-](F)(F)(F)(F)F [1-butyl-3-methylimidazolium hexafluorophosphate]
Conditions | molar heat capacity at constant pressure [J/K/mol]
201.61 K, Metastable crystal | 280.4 ± 1.5
201.89 K, Metastable crystal | 291.8 ± 1.5
203.54 K, Metastable crystal | 280.7 ± 1.5
203.78 K, Metastable crystal | 296.2 ± 1.5
205.47 K, Metastable crystal | 281 ± 1.5
205.65 K, Metastable crystal | 301.3 ± 1.6
207.4 K, Metastable crystal | 281.3 ± 1.5
207.51 K, Metastable crystal | 306.9 ± 1.6
209.34 K, Metastable crystal | 281.8 ± 1.5
209.36 K, Metastable crystal | 313.5 ± 1.6
211.19 K, Metastable crystal | 322.6 ± 1.7
211.28 K, Metastable crystal | 282.5 ± 1.5
213 K, Metastable crystal | 333.5 ± 1.7
213.22 K, Metastable crystal | 283.4 ± 1.5
214.77 K, Metastable crystal | 351.9 ± 1.8
215.16 K, Metastable crystal | 284.4 ± 1.5
216.47 K, Metastable crystal | 395.3 ± 2.1
217.1 K, Metastable crystal | 285.1 ± 1.5
218.22 K, Metastable crystal | 317.7 ± 1.7
219.04 K, Metastable crystal | 285.7 ± 1.5
220.12 K, Metastable crystal | 285.9 ± 1.5
220.98 K, Metastable crystal | 286.7 ± 1.5
222.07 K, Metastable crystal | 286.7 ± 1.5
222.93 K, Metastable crystal | 287.8 ± 1.5
224.04 K, Metastable crystal | 287.5 ± 1.5
224.86 K, Metastable crystal | 288.7 ± 1.5
226.9 K, Metastable crystal | 290 ± 1.5
228.84 K, Metastable crystal | 291.1 ± 1.5
230.78 K, Metastable crystal | 292 ± 1.5
232.72 K, Metastable crystal | 293 ± 1.5
234.67 K, Metastable crystal | 294.1 ± 1.5
236.61 K, Metastable crystal | 295.2 ± 1.5
238.55 K, Metastable crystal | 296.3 ± 1.5
240.49 K, Metastable crystal | 298.3 ± 1.5
242.43 K, Metastable crystal | 299.6 ± 1.6
286.27 K, Liquid | 400.3 ± 2
287.99 K, Liquid | 401.2 ± 2.1
289.7 K, Liquid | 402.1 ± 2.1
291.41 K, Liquid | 403 ± 2.1
293.12 K, Liquid | 404 ± 2.1
294.83 K, Liquid | 405.1 ± 2.1
296.54 K, Liquid | 405.8 ± 2.1
298.25 K, Liquid | 406.9 ± 2.1
299.96 K, Liquid | 407.8 ± 2.1
301.71 K, Liquid | 409.1 ± 2.1
303.52 K, Liquid | 410.1 ± 2.1
305.33 K, Liquid | 411 ± 2.1
307.14 K, Liquid | 412 ± 2.1
308.95 K, Liquid | 412.9 ± 2.1
310.75 K, Liquid | 414 ± 2.1
312.56 K, Liquid | 415.1 ± 2.1
314.36 K, Liquid | 415.8 ± 2.1
316.16 K, Liquid | 417 ± 2.1
317.97 K, Liquid | 418 ± 2.1
319.77 K, Liquid | 419.2 ± 2.1
321.57 K, Liquid | 420.1 ± 2.1
323.38 K, Liquid | 421 ± 2.1
325.18 K, Liquid | 422 ± 2.2
326.98 K, Liquid | 423.2 ± 2.2
328.78 K, Liquid | 423.9 ± 2.2
330.59 K, Liquid | 425 ± 2.2
332.39 K, Liquid | 426.1 ± 2.2
334.19 K, Liquid | 427.2 ± 2.2
335.99 K, Liquid | 428.2 ± 2.2
337.79 K, Liquid | 429.2 ± 2.2
339.59 K, Liquid | 430.2 ± 2.2
341.39 K, Liquid | 431.1 ± 2.2
343.18 K, Liquid | 432.1 ± 2.2
344.98 K, Liquid | 433.1 ± 2.2
346.78 K, Liquid | 434.1 ± 2.2
348.58 K, Liquid | 435.2 ± 2.2
350.38 K, Liquid | 436.3 ± 2.2
352.18 K, Liquid | 437.4 ± 2.2
353.99 K, Liquid | 438.3 ± 2.2
355.79 K, Liquid | 439.3 ± 2.2
357.59 K, Liquid | 440.3 ± 2.2
359.4 K, Liquid | 441.1 ± 2.2
361.2 K, Liquid | 442.4 ± 2.3
363 K, Liquid | 443.4 ± 2.3
364.81 K, Liquid | 444.5 ± 2.3
366.61 K, Liquid | 445.6 ± 2.3
368.41 K, Liquid | 446.3 ± 2.3
